{"source": "paper PMC7150891", "about": "“Mertansine Inhibits mRNA Expression and Enzyme Activities of Cytochrome P450s and Uridine 5′-Diphospho-Glucuronosyltransferases in Human Hepatocytes and Liver Microsomes” (Pharmaceutics, 2020)", "key": {"[1]": {"tested_on": "recombinant human CYP3A4", "design": "method as in PMID 25048520, PMID 22752008", "settings": "cited from earlier work"}, "[2]": {"tested_on": "CYP2C8 mRNA", "test": "CYP2C8 mRNA level in human hepatocytes after 48 h treatment (RT-PCR)", "settings": "plated cryopreserved human hepatocytes, IC50, suppression of CYP2C8 mRNA expression, 1.25–2500 nM"}, "[3]": {"target": "T1, UGT1A4 (Homo sapiens, UniProt P22310)", "T1 construct": "ultrapooled human liver microsomes (0.2 mg/mL); from tissue; host or cells: human liver microsomes (ultrapooled)", "T1 sequence (P22310 29-534)": "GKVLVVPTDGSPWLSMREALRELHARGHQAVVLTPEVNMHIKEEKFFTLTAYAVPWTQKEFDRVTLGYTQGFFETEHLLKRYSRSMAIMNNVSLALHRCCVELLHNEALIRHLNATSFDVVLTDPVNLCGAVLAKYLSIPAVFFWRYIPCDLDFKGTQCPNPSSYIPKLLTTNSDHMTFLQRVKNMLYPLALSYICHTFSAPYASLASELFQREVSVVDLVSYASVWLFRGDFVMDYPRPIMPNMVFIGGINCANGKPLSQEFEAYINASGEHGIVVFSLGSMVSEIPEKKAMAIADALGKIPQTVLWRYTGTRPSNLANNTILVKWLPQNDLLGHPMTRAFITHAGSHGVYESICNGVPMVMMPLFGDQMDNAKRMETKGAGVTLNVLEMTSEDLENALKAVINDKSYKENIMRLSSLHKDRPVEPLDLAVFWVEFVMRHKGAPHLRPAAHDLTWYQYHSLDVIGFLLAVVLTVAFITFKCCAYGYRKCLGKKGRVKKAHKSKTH", "test": "Inhibition of UGT1A4-catalyzed trifluoperazine N-β-D-glucuronidation in ultrapooled human liver microsomes", "type": "in vitro ADME", "protocol": "The inhibitory potential of mertansine on UGT1A1, UGT1A3, UGT1A4, UGT1A6, UGT1A9, and UGT2B7 activities was evaluated using liquid chromatography–tandem mass spectrometry (LC-MS/MS) with a cocktail of UGT substrates and ultrapooled human liver microsomes. Each incubation mixture was prepared to a final volume of 100 μL as follows: ultrapooled human liver microsomes (0.2 mg/mL), 5 mM UDPGA, 10 mM magnesium chloride, alamethicin (25 μg/mL), 50 mM Tris buffer (pH 7.4), various concentrations of mertansine in methanol (final concentrations of 0.01–50 μM), and the cocktail sets of UGT enzyme-specific substrates. Two cocktail sets were used: set A contained 0.5 μM SN-38 for UGT1A1, 2 μM chenodeoxycholic acid for UGT1A3, and 0.5 μM trifluoperazine for UGT1A4; and set B contained 1 μM N-acetylserotonin for UGT1A6, 0.2 μM mycophenolic acid for UGT1A9, and 1 μM naloxone for UGT2B7. The reactions were initiated by adding UDPGA and incubated in a shaking water bath for 60 min at 37 °C. […] Next, 50 μL of each supernatant of sets A and B was mixed, and aliquots (5 μL) were analyzed using LC-MS/MS. […]\nThe LC-MS/MS system was comprised of an Agilent 6495 triple quadrupole mass spectrometer coupled with an Agilent 1290 Infinity system (Agilent Technologies, Wilmington, DE, USA). […] The electrospray ionization (ESI) source settings in both positive and negative ion modes were as follows: gas temperature, 200 °C; gas flow, 14 L/min; nebulizer, 40 psi; sheath gas temperature, 380 °C; sheath gas flow, 11 L/min; capillary voltage, 4500 V; and nozzle voltage, 500 V. Each metabolite was quantified via selected reaction monitoring in the negative ion mode (chenodeoxycholic acid 24-acyl-β-glucuronide, m/z 567.1 to 391.2; mycophenolic acid β-D-glucuronide, m/z 495.0 to 319.0; propofol glucuronide (IS), m/z 353.0 to 177.0) and in the positive ion mode (SN-38 glucuronide, m/z 568.9 to 392.9; trifluoperazine N-β-D-glucuronide, m/z 583.9 to 407.9; N-acetylserotonin β-D-glucuronide, m/z 394.0 to 219.0; naloxone 3-β-D-glucuronide, m/z 503.9 to 309.9; meloxicam (IS), m/z 351.9 to 115.0). […]"}, "[4]": {"design": "method as in PMID 25048520, PMID 22752008", "settings": "up to 1 µM; cited from earlier work"}}, "note": "“Also recorded” adds a separate entry of the source.", "data": [{"smiles": "COc1cc2cc(c1Cl)N(C)C(=O)CC(OC(=O)C(C)N(C)C(=O)CCS)C1(C)OC1C(C)C1CC(O)(NC(=O)O1)C(OC)C=CC=C(C)C2", "note": "(stereo not shown) [mertansine, Mertansine]", "values": [{"measurement": "KI (inactivation)", "setting": "[1]; recombinant human CYP3A4, irreversible inhibition, read-out: Ki, inactivation of midazolam 1′-hydroxylation", "result": 3400, "unit": "nM"}, {"measurement": "kinact, inactivation of midazolam 1′-hydroxylation", "setting": "[1]; recombinant human CYP3A4", "result": 0.058, "unit": "min⁻¹"}, {"measurement": "IC50 at 48 h", "setting": "[2]; Mean ± SD of three human hepatocyte lots, 48 h", "result": "32.1 ± 14.9", "unit": "nM"}, {"measurement": "IC50 at 48 h", "setting": "[2]; human hepatocytes Lot 319, 48 h", "result": 48.7, "unit": "nM"}, {"measurement": "IC50 at 48 h", "setting": "[2]; human hepatocytes Lot 321, 48 h", "result": 20, "unit": "nM"}, {"measurement": "IC50 at 48 h", "setting": "[2]; human hepatocytes Lot 361, 48 h", "result": 27.5, "unit": "nM"}, {"measurement": "Inhibition Mode, UGT1A4", "setting": "[3]; human liver microsomes, Dixon plot", "result": "competitively inhibited; also recorded: competitive inhibitor"}, {"measurement": "Ki", "setting": "[3]; human liver microsomes, trifluoperazine 0.2–2 µM", "result": 21200, "unit": "nM"}, {"measurement": "IC50", "setting": "[3]; ultrapooled human liver microsomes, 0.5 µM trifluoperazine (cocktail)", "result": 23300, "unit": "nM"}, {"measurement": "Induction potential", "setting": "[4]", "result": "no induction potential"}]}]}
